Assays:
Format in all cases: in vivo
[1] = test system: pigweed (Amaranthus retroflexus); test: Test A postemergence; details: postemergence; for Pigweed plant response rating: 125 g ai/ha, visual injury rating on 0 to 100 scale (0 no effect, 100 complete control), approx. 10 d; for Plant response rating, Pigweed: 500 g ai/ha, 0 to 100 scale, 0 no effect, 100 complete control
Procedure, shortened: (§1)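 Visual injury scores from 0, no effect, to 100, complete control, were assigned versus untreated controls roughly 10 d after treatment in the greenhouse. Test chemicals, formulated with surfactant in a non-phytotoxic solvent, were applied to planted seeds as a preemergence soil spray or postemergence to one- to two-leaf plants 2 to 10 cm tall, in loam–sand soil.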

[2] = test system: Galium (catchweed bedstraw, Galium aparine); test: Test A postemergence; details: postemergence; for Galium plant response rating: 125 g ai/ha, visual injury rating on 0 to 100 scale (0 no effect, 100 complete control), approx. 10 d; for Plant response rating, Galium: 500 g ai/ha, 0 to 100 scale, 0 no effect, 100 complete control
Procedure, shortened: as §1

[3] = test system: giant foxtail (Setaria faberii); test: Test A postemergence; details: postemergence; for Foxtail, Giant plant response rating: 125 g ai/ha, visual injury rating on 0 to 100 scale (0 no effect, 100 complete control), approx. 10 d; for Plant response rating, Foxtail, Giant: 500 g ai/ha, 0 to 100 scale, 0 no effect, 100 complete control
Procedure, shortened: as §1

[4] = test system: wheat (Triticum aestivum); test: Test A postemergence; details: postemergence; for Wheat plant response rating: 125 g ai/ha, visual injury rating on 0 to 100 scale (0 no effect, 100 complete control), approx. 10 d; for Plant response rating, Wheat: 500 g ai/ha, 0 to 100 scale, 0 no effect, 100 complete control
Procedure, shortened: as §1

corn (Zea mays) = test: Test A postemergence; details: postemergence; for Corn plant response rating: 125 g ai/ha, visual injury rating on 0 to 100 scale (0 no effect, 100 complete control), approx. 10 d; for Plant response rating, Corn: 500 g ai/ha, 0 to 100 scale, 0 no effect, 100 complete control
Procedure, shortened: as §1

[5] = test system: ryegrass, Italian (Italian ryegrass, Lolium multiflorum); test: Test A postemergence; details: postemergence; for Ryegrass, Italian plant response rating: 125 g ai/ha, visual injury rating on 0 to 100 scale (0 no effect, 100 complete control), approx. 10 d; for Plant response rating, Ryegrass, Italian: 500 g ai/ha, 0 to 100 scale, 0 no effect, 100 complete control
Procedure, shortened: as §1

[6] = test system: barnyardgrass (Echinochloa crus-galli); test: Test A postemergence; details: postemergence; for Barnyardgrass plant response rating: 125 g ai/ha, visual injury rating on 0 to 100 scale (0 no effect, 100 complete control), approx. 10 d; for Plant response rating, Barnyardgrass: 500 g ai/ha, 0 to 100 scale, 0 no effect, 100 complete control
Procedure, shortened: as §1

[7] = test system: blackgrass (Alopecurus myosuroides); test: Test A postemergence; details: postemergence; for Blackgrass plant response rating: 125 g ai/ha, visual injury rating on 0 to 100 scale (0 no effect, 100 complete control), approx. 10 d; for Plant response rating, Blackgrass: 500 g ai/ha, 0 to 100 scale, 0 no effect, 100 complete control
Procedure, shortened: as §1

[8] = test system: ragweed (common ragweed, Ambrosia elatior); test: Test A postemergence; details: postemergence; for Ragweed plant response rating: 125 g ai/ha, visual injury rating on 0 to 100 scale (0 no effect, 100 complete control), approx. 10 d; for Plant response rating, Ragweed: 500 g ai/ha, 0 to 100 scale, 0 no effect, 100 complete control
Procedure, shortened: as §1

Kochia (Kochia scoparia) [9] = test: Test A postemergence; details: postemergence; for Kochia plant response rating: 125 g ai/ha, visual injury rating on 0 to 100 scale (0 no effect, 100 complete control), approx. 10 d; for Plant response rating, Kochia: 500 g ai/ha, 0 to 100 scale, 0 no effect, 100 complete control
Procedure, shortened: as §1

[10] = test system: pigweed (Amaranthus retroflexus); test: Test A preemergence; details: for Plant response rating, Pigweed: 125 g ai/ha, preemergence, 0 to 100 scale (0 no effect, 100 complete control); for Pigweed plant response rating (0 to 100 scale, 0 is no effect, 100 is complete control): Preemergence, 500 g ai/ha, visual injury approx. 10 d
[11] = test system: giant foxtail (Setaria faberii); test: Test A preemergence; details: for Plant response rating, Foxtail, Giant: 125 g ai/ha, preemergence, 0 to 100 scale (0 no effect, 100 complete control); for Foxtail, Giant plant response rating (0 to 100 scale, 0 is no effect, 100 is complete control): Preemergence, 500 g ai/ha, visual injury approx. 10 d
Procedure, shortened: as §1

[12] = test system: ryegrass, Italian (Italian ryegrass, Lolium multiflorum); test: Test A preemergence; details: for Plant response rating, Ryegrass, Italian: 125 g ai/ha, preemergence, 0 to 100 scale (0 no effect, 100 complete control); for Ryegrass, Italian plant response rating (0 to 100 scale, 0 is no effect, 100 is complete control): Preemergence, 500 g ai/ha, visual injury approx. 10 d
Procedure, shortened: as §1

[13] = test system: barnyardgrass (Echinochloa crus-galli); test: Test A preemergence; details: for Plant response rating, Barnyardgrass: 125 g ai/ha, preemergence, 0 to 100 scale (0 no effect, 100 complete control); for Barnyardgrass plant response rating (0 to 100 scale, 0 is no effect, 100 is complete control): Preemergence, 500 g ai/ha, visual injury approx. 10 d
Procedure, shortened: as §1

[14] = test system: ragweed (common ragweed, Ambrosia elatior); test: Test A preemergence; details: for Ragweed plant response rating (0 to 100 scale, 0 is no effect, 100 is complete control): Preemergence, 500 g ai/ha, visual injury approx. 10 d; for Plant response rating, Ragweed: 125 g ai/ha, preemergence, 0 to 100 scale (0 no effect, 100 complete control)
Procedure, shortened: as §1

Kochia (Kochia scoparia) [15] = test: Test A preemergence; details: for Plant response rating, Kochia: 125 g ai/ha, preemergence, 0 to 100 scale (0 no effect, 100 complete control); for Kochia plant response rating (0 to 100 scale, 0 is no effect, 100 is complete control): Preemergence, 500 g ai/ha, visual injury approx. 10 d
Procedure, shortened: as §1

[16] = test system: sedge, umbrella (small-flower umbrella sedge, Cyperus difformis); test: Test B flooded paddy test; details: Flood, 0 to 100 scale where 0 is no effect and 100 is complete control, 13 to 15 d
Procedure, shortened: (§2)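 Compound goes directly into floodwater once pots are flooded 3 cm above soil, targeting plants at two leaves; the water depth is then held for the test duration. Plants sit 13–15 d in a greenhouse and are rated visually, 100 denoting complete control.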

rice (Oryra sativa) = test: Test B flooded paddy test; details: Flood, 0 to 100 scale where 0 is no effect and 100 is complete control, 13 to 15 d
Procedure, shortened: as §2

[17] = test system: ducksalad (Heteranthera limosa); test: Test B flooded paddy test; details: Flood, 0 to 100 scale where 0 is no effect and 100 is complete control, 13 to 15 d
Procedure, shortened: as §2

[18] = test system: barnyardgrass (Echinochloa crus-galli); test: Test B flooded paddy test; details: Flood, 0 to 100 scale where 0 is no effect and 100 is complete control, 13 to 15 d
Procedure, shortened: as §2

SMILES	Pigweed plant response rating [1]	Plant response rating, Pigweed [1]	Galium plant response rating [2]	Plant response rating, Galium [2]	Foxtail, Giant plant response rating [3]	Plant response rating, Foxtail, Giant [3]	Wheat plant response rating [4]	Plant response rating, Wheat [4]	Corn plant response rating (corn (Zea mays))	Plant response rating, Corn (corn (Zea mays))	Ryegrass, Italian plant response rating [5]	Plant response rating, Ryegrass, Italian [5]	Barnyardgrass plant response rating [6]	Plant response rating, Barnyardgrass [6]	Blackgrass plant response rating [7]	Plant response rating, Blackgrass [7]	Ragweed plant response rating [8]	Plant response rating, Ragweed [8]	Kochia plant response rating (Kochia (Kochia scoparia) [9])	Plant response rating, Kochia (Kochia (Kochia scoparia) [9])	further results
Cc1cc(C2CN(C)C(=O)C2C(=O)Nc2ccccc2F)ccc1F (centres unmarked) [Compound 402]	40	50	50	60	90	90	50	80	70	80	30	50	90	90	50	70	20	60	20	60	Plant response rating, Pigweed [10]: 30; Pigweed plant response rating (0 to 100 scale, 0 is no effect, 100 is complete control) [10]: 50; Plant response rating, Foxtail, Giant [11]: 90; Foxtail, Giant plant response rating (0 to 100 scale, 0 is no effect, 100 is complete control) [11]: 90; Plant response rating, Ryegrass, Italian [12]: 20; Ryegrass, Italian plant response rating (0 to 100 scale, 0 is no effect, 100 is complete control) [12]: 40; Plant response rating, Barnyardgrass [13]: 90; Barnyardgrass plant response rating (0 to 100 scale, 0 is no effect, 100 is complete control) [13]: 90; Ragweed plant response rating (0 to 100 scale, 0 is no effect, 100 is complete control) [14]: 70; Plant response rating, Kochia (Kochia (Kochia scoparia) [15]): 40; Kochia plant response rating (0 to 100 scale, 0 is no effect, 100 is complete control) (Kochia (Kochia scoparia) [15]): 70; Plant response rating, Sedge, Umbrella ([16]; 250 g ai/ha): 0; Plant response rating, Rice (rice (Oryra sativa); 250 g ai/ha): 0; Plant response rating, Ducksalad ([17]; 250 g ai/ha): 90; Plant response rating, Barnyardgrass ([18]; 250 g ai/ha): 100
CN1CC(c2ccc(F)cc2)C(C(=O)Nc2ccccc2F)C1=O (centres unmarked) [Compound 437]	0	20	30	50	90	90	0	40	0	20	0	20	90	90	0	30	0	0	20	30	Plant response rating, Pigweed [10]: 20; Pigweed plant response rating (0 to 100 scale, 0 is no effect, 100 is complete control) [10]: 80; Plant response rating, Foxtail, Giant [11]: 90; Foxtail, Giant plant response rating (0 to 100 scale, 0 is no effect, 100 is complete control) [11]: 100; Plant response rating, Ryegrass, Italian [12]: 0; Ryegrass, Italian plant response rating (0 to 100 scale, 0 is no effect, 100 is complete control) [12]: 50; Plant response rating, Barnyardgrass [13]: 90; Barnyardgrass plant response rating (0 to 100 scale, 0 is no effect, 100 is complete control) [13]: 90; Plant response rating, Ragweed [14]: 0; Ragweed plant response rating (0 to 100 scale, 0 is no effect, 100 is complete control) [14]: 60; Plant response rating, Kochia (Kochia (Kochia scoparia) [15]): 60; Kochia plant response rating (0 to 100 scale, 0 is no effect, 100 is complete control) (Kochia (Kochia scoparia) [15]): 70; Plant response rating, Sedge, Umbrella ([16]; 250 g ai/ha): 0; Plant response rating, Rice (rice (Oryra sativa); 250 g ai/ha): 0; Plant response rating, Ducksalad ([17]; 250 g ai/ha): 100; Plant response rating, Barnyardgrass ([18]; 250 g ai/ha): 65
Cc1cccc(NC(=O)C2C(=O)NCC2c2ccc(F)c(F)c2)c1F (centres unmarked) [Compound 409]	0	20	0	0	60	80	0	0	0	0	0	0	60	70	10	20	0	0	0	30	Plant response rating, Pigweed [10]: 0; Pigweed plant response rating (0 to 100 scale, 0 is no effect, 100 is complete control) [10]: 10; Plant response rating, Foxtail, Giant [11]: 80; Foxtail, Giant plant response rating (0 to 100 scale, 0 is no effect, 100 is complete control) [11]: 90; Plant response rating, Ryegrass, Italian [12]: 0; Ryegrass, Italian plant response rating (0 to 100 scale, 0 is no effect, 100 is complete control) [12]: 0; Plant response rating, Barnyardgrass [13]: 70; Barnyardgrass plant response rating (0 to 100 scale, 0 is no effect, 100 is complete control) [13]: 80; Plant response rating, Ragweed [14]: 0; Ragweed plant response rating (0 to 100 scale, 0 is no effect, 100 is complete control) [14]: 0; Plant response rating, Kochia (Kochia (Kochia scoparia) [15]): 0; Kochia plant response rating (0 to 100 scale, 0 is no effect, 100 is complete control) (Kochia (Kochia scoparia) [15]): 0; Plant response rating, Sedge, Umbrella ([16]; 500 g ai/ha): 0; Plant response rating, Rice (rice (Oryra sativa); 500 g ai/ha): 30; Plant response rating, Ducksalad ([17]; 500 g ai/ha): 40; Plant response rating, Barnyardgrass ([18]; 500 g ai/ha): 40
CN1CC(c2ccc3c(c2)OC(F)(F)O3)C(C(=O)Nc2ccc(F)cc2F)C1=O (centres unmarked) [Compound 444]	50	80	60	70	80	80	50	50	60	70	50	80	80	90	70	60	20	40	40	80	Plant response rating, Pigweed [10]: 80; Pigweed plant response rating (0 to 100 scale, 0 is no effect, 100 is complete control) [10]: 80; Plant response rating, Foxtail, Giant [11]: 90; Foxtail, Giant plant response rating (0 to 100 scale, 0 is no effect, 100 is complete control) [11]: 90; Plant response rating, Ryegrass, Italian [12]: 40; Ryegrass, Italian plant response rating (0 to 100 scale, 0 is no effect, 100 is complete control) [12]: 90; Plant response rating, Barnyardgrass [13]: 90; Barnyardgrass plant response rating (0 to 100 scale, 0 is no effect, 100 is complete control) [13]: 90; Plant response rating, Ragweed [14]: 50; Ragweed plant response rating (0 to 100 scale, 0 is no effect, 100 is complete control) [14]: 80; Plant response rating, Kochia (Kochia (Kochia scoparia) [15]): 60; Kochia plant response rating (0 to 100 scale, 0 is no effect, 100 is complete control) (Kochia (Kochia scoparia) [15]): 80; Plant response rating, Sedge, Umbrella ([16]; 250 g ai/ha): 0; Plant response rating, Rice (rice (Oryra sativa); 250 g ai/ha): 0; Plant response rating, Ducksalad ([17]; 250 g ai/ha): 100; Plant response rating, Barnyardgrass ([18]; 250 g ai/ha): 75
